According to patent US20020137929A1, “1 - (3-heterocyclylphenyl) isothiourea, -isourea, -guanidine and -amidine herbicidal agents” (Intellectual Property Department, BASF Aktiengesellschaft, priority 1998, published 2002):

Legend:
AMBEL (Ragweed, Common) [1] = test: Preemergence herbicidal evaluation; assay type: in vivo, Ambrosia artemisifolia; conditions: 0.2500 kg/ha, rated 4-5 weeks after treatment
Description: (§1) Results of herbicide evaluation are expressed on a rating scale (0-9). The scale is based upon a visual observation of plant stand, vigor, malformation, size, chlorosis and overall plant appearance as compared with a control.
(§2) The preemergence herbicidal activity of the test compounds of the present invention is exemplified by the following tests in which the seeds of a variety of monocotyledonous and dicotyledonous plants are separately mixed with potting soil and planted on top of approximately one inch of soil in separate pint cups. After planting, the cups are sprayed with the selected aqueous acetone solution containing test compound in sufficient quantity to provide the equivalent of about 0.0156 to 0.500 kg per hectare of test compound per cup. The treated cups are then placed on greenhouse benches, watered and cared for in accordance with conventional greenhouse procedures. From four to five weeks after treatment, the tests are terminated and each cup is examined and rated according to the rating system provided in Example 37.
(§3) The compounds evaluated are reported by compound number given in Example 37.

[2] = tested on: CHEAL (Lambsquarters, Common); test: Postemergence herbicidal evaluation; assay type: in vivo, Chenopodium album; conditions: postemergence
Method: (§4) In the tests, seedling plants are grown in jiffy flats for about two weeks. The test compounds are dispersed in 50/50 acetone/water mixtures containing 0.5% TWEEN®20, a polyoxyethylene sorbitan monolaurate surfactant of Atlas Chemical Industries, in sufficient quantities to provide the equivalent of about 0.0156 kg to 0.500 kg per hectare of active compound when applied to the plants through a spray nozzle operating at 40 psi for a predetermined time. After spraying, the plants are placed on greenhouse benches and are cared for in accordance with conventional greenhouse procedures. From four to five weeks after treatment, the seedling plants are examined and rated according to the rating system set forth below. Where more than one test is involved for a given compound, the data are averaged.
(§5) Plant species employed in these evaluations are reported by header abbreviation, common name and scientific name.
as §1

ORYSAT (Rice, Tebonnet) [3] = test: Postemergence herbicidal evaluation; assay type: in vivo, Oryza sativa, (L.) Tebonnet; conditions: postemergence
Method: as §4, §5, §1

ABUTH (Velvetleaf) [4] = test: Postemergence herbicidal evaluation; assay type: in vivo, Abutilon theophrasti; conditions: postemergence
Method: as §4, §5, §1

[5] = tested on: SAGPY (Arrowhead (Pygmaea)); test: Preemergence weed control under flooded paddy conditions; assay type: in vivo, Sagittaria pygmaea; conditions: rated 3-4 weeks after treatment
Method: as §1
(§6) Preemergence herbicidal activity under flooded paddy conditions is determined as follows: plant seeds or propagating organs are planted in the top 0.5 cm of silt loam soil in 32 oz. plastic containers with a diameter of 10.5 cm and no drainage holes. Water is added to these containers and maintained at 1.5 to 3 cm above the soil surface for the duration of the experiment. The test compounds are applied as aqueous/acetone mixtures 50/50 v/v pipetted directly into the flood water to give the equivalent of about 0.0313 to 0.500 kg/ha of active ingredient. The treated containers are placed on greenhouse benches and cared for in accordance with conventional greenhouse procedures. Three to four weeks after treatment, the test is terminated and each container is examined and herbicidal effect rated according to the rating system provided in Example 37. The compounds evaluated are reported by compound number given in Example 37.
(§7) Plant species employed in this example are reported by header abbreviation, common name and scientific name.

MOOVA (Monochoria) = test: as above; assay type: in vivo, Monochoria vaginalis; conditions: rated 3-4 weeks after treatment
Method: as §1, §6, §7

[6] = tested on: CHEAL (Lambsquarters, Common); test: Preemergence herbicidal evaluation; assay type: in vivo, Chenopodium album; conditions: 0.2500 kg/ha, rated 4-5 weeks after treatment
Description: as §1, §2, §3

[7] = tested on: GLXMAW (Soybean, Williams); test: Postemergence herbicidal evaluation; assay type: in vivo, Glycine max, (L.) Merr. cv Williams; conditions: postemergence
Method: as §4, §5, §1

ZEAMX (Corn, Field) [8] = test: Postemergence herbicidal evaluation; assay type: in vivo, Zea mays; conditions: postemergence
Method: as §4, §5, §1

[9] = tested on: GLXMAW (Soybean, Williams); test: Preemergence herbicidal evaluation; assay type: in vivo, Glycine max, (L.) Merr. cv Williams; conditions: 0.2500 kg/ha, rated 4-5 weeks after treatment
Description: as §1, §2, §3

GALAP (Galium) [10] = test: Preemergence herbicidal evaluation; assay type: in vivo, Galium aparine; conditions: 0.2500 kg/ha, rated 4-5 weeks after treatment
Description: as §1, §2, §3

CYPSE (Flatsedge) = test: Preemergence weed control under flooded paddy conditions; assay type: in vivo, Cyperus serotinus; conditions: rated 3-4 weeks after treatment
Method: as §1, §6, §7

[11] = tested on: TRZAWR (Wheat, Winter, cv Riband); test: Postemergence herbicidal evaluation; assay type: in vivo, Triticum aestivum; conditions: postemergence
Method: as §4, §5, §1

ECHCG (Barnyardgrass) [12] = test: Preemergence herbicidal evaluation; assay type: in vivo, Echinochloa crus-galli; conditions: 0.2500 kg/ha, rated 4-5 weeks after treatment
Description: as §1, §2, §3

AMBEL (Ragweed, Common) [13] = test: Postemergence herbicidal evaluation; assay type: in vivo, Ambrosia artemisifolia; conditions: postemergence
Method: as §4, §5, §1

[14] = tested on: IPOHE (Morningglory, Ivyleaf); test: Preemergence herbicidal evaluation; assay type: in vivo, Ipomoea hederacea; conditions: 0.2500 kg/ha, rated 4-5 weeks after treatment
Description: as §1, §2, §3

SETVI (Foxtail, Green) [15] = test: Preemergence herbicidal evaluation; assay type: in vivo, Setaria viridis; conditions: 0.2500 kg/ha, rated 4-5 weeks after treatment
Description: as §1, §2, §3

GALAP (Galium) [16] = test: Postemergence herbicidal evaluation; assay type: in vivo, Galium aparine; conditions: postemergence
Method: as §4, §5, §1

[17] = tested on: ECHORC (Watergrass (Calif.)); test: Preemergence weed control under flooded paddy conditions; assay type: in vivo, Echinochloa oryzoides; conditions: rated 3-4 weeks after treatment
Method: as §1, §6, §7

ORYSAT (Rice, Tebonnet) [18] = test: Preemergence herbicidal evaluation; assay type: in vivo, Oryza sativa, (L.) Tebonnet; conditions: 0.2500 kg/ha, rated 4-5 weeks after treatment
Description: as §1, §2, §3

[19] = tested on: IPOHE (Morningglory, Ivyleaf); test: Postemergence herbicidal evaluation; assay type: in vivo, Ipomoea hederacea; conditions: postemergence
Method: as §4, §5, §1

ZEAMX (Corn, Field) [20] = test: Preemergence herbicidal evaluation; assay type: in vivo, Zea mays; conditions: 0.2500 kg/ha, rated 4-5 weeks after treatment
Description: as §1, §2, §3

CASOB (Sicklepod) [21] = test: Preemergence herbicidal evaluation; assay type: in vivo, Cassia obtusifolia; conditions: 0.2500 kg/ha, rated 4-5 weeks after treatment
Description: as §1, §2, §3

ABUTH (Velvetleaf) [22] = test: Preemergence herbicidal evaluation; assay type: in vivo, Abutilon theophrasti; conditions: 0.2500 kg/ha, rated 4-5 weeks after treatment
Description: as §1, §2, §3

ECHCG (Barnyardgrass) [23] = test: Postemergence herbicidal evaluation; assay type: in vivo, Echinochloa crus-galli; conditions: postemergence
Method: as §4, §5, §1

[24] = tested on: TRZAWR (Wheat, Winter, cv Riband); test: Preemergence herbicidal evaluation; assay type: in vivo, Triticum aestivum; conditions: 0.2500 kg/ha, rated 4-5 weeks after treatment
Description: as §1, §2, §3

SETVI (Foxtail, Green) [25] = test: Postemergence herbicidal evaluation; assay type: in vivo, Setaria viridis; conditions: postemergence
Method: as §4, §5, §1

CYPIR (Rice Flatsedge) = test: Preemergence weed control under flooded paddy conditions; assay type: in vivo, Cyperus iria; conditions: rated 3-4 weeks after treatment
Method: as §1, §6, §7

CASOB (Sicklepod) [26] = test: Postemergence herbicidal evaluation; assay type: in vivo, Cassia obtusifolia; conditions: postemergence
Method: as §4, §5, §1

CCOC(=O)CN1C(=O)CSC1=Nc1cc(N2C(=O)CC(C(F)(F)F)CC2=O)c(F)cc1Cl [Compound 169, Ethyl 2-{{2-chloro-5-[2,6-dioxo-4-(trifluoromethyl)piperidino]-4-fluorophenyl}imino}-4-oxo-3-thiazolidineacetate]
6.5: herbicidal rating GLXMAW ([7]; rate 0.0313 kg/ha)
1.0: herbicidal rating ORYSAT (ORYSAT (Rice, Tebonnet) [3]; rate 0.0313 kg/ha) | herbicidal rating CASOB (CASOB (Sicklepod) [26]; rate 0.0313 kg/ha)
8.5: herbicidal rating ZEAMX (ZEAMX (Corn, Field) [8]; rate 0.0625 kg/ha)
0.5: herbicidal rating ORYSAT (ORYSAT (Rice, Tebonnet) [3]; rate 0.0156 kg/ha)
5.0: herbicidal effect rating, MOOVA (MOOVA (Monochoria); 0.0313 kg/ha) | herbicidal rating GLXMAW ([7]; rate 0.0156 kg/ha) | Preemergence herbicidal rating ABUTH (ABUTH (Velvetleaf) [22]) | herbicidal rating SETVI (SETVI (Foxtail, Green) [25]; rate 0.0313 kg/ha)
6.0: herbicidal effect rating, MOOVA (MOOVA (Monochoria); 0.0625 kg/ha) | herbicidal effect rating, MOOVA (MOOVA (Monochoria); 0.1250 kg/ha) | herbicidal rating ZEAMX (ZEAMX (Corn, Field) [8]; rate 0.0156 kg/ha) | herbicidal rating TRZAWR ([11]; rate 0.0313 kg/ha)
7.0: herbicidal effect rating, MOOVA (MOOVA (Monochoria); 0.2500 kg/ha) | herbicidal rating TRZAWR ([11]; rate 0.0625 kg/ha) | herbicidal rating ECHCG (ECHCG (Barnyardgrass) [23]; rate 0.0625 kg/ha)
4.0: herbicidal rating CHEAL ([2]; rate 0.0625 kg/ha) | Preemergence herbicidal rating CHEAL [6] | herbicidal rating ECHCG (ECHCG (Barnyardgrass) [23]; rate 0.0313 kg/ha)
4.5: herbicidal rating TRZAWR ([11]; rate 0.0156 kg/ha)
9.0: herbicidal rating ABUTH (ABUTH (Velvetleaf) [4]; rate 0.0156 kg/ha) | herbicidal rating ABUTH (ABUTH (Velvetleaf) [4]; rate 0.0313 kg/ha) | herbicidal rating ABUTH (ABUTH (Velvetleaf) [4]; rate 0.0625 kg/ha) | herbicidal rating AMBEL (AMBEL (Ragweed, Common) [13]; rate 0.0156 kg/ha) | herbicidal rating AMBEL (AMBEL (Ragweed, Common) [13]; rate 0.0313 kg/ha) | herbicidal rating AMBEL (AMBEL (Ragweed, Common) [13]; rate 0.0625 kg/ha) | herbicidal rating IPOHE ([19]; rate 0.0156 kg/ha) | herbicidal rating IPOHE ([19]; rate 0.0313 kg/ha) | herbicidal rating IPOHE ([19]; rate 0.0625 kg/ha) | herbicidal rating SETVI (SETVI (Foxtail, Green) [25]; rate 0.0625 kg/ha)
2.0: herbicidal rating ORYSAT (ORYSAT (Rice, Tebonnet) [3]; rate 0.0625 kg/ha) | herbicidal effect rating, ECHORC ([17]; 0.2500 kg/ha) | herbicidal rating ECHCG (ECHCG (Barnyardgrass) [23]; rate 0.0156 kg/ha) | herbicidal effect rating, CYPIR (CYPIR (Rice Flatsedge); 0.2500 kg/ha)
7.5: herbicidal rating GLXMAW ([7]; rate 0.0625 kg/ha) | herbicidal rating ZEAMX (ZEAMX (Corn, Field) [8]; rate 0.0313 kg/ha)
3.0: Preemergence herbicidal rating AMBEL (AMBEL (Ragweed, Common) [1]) | herbicidal rating CHEAL ([2]; rate 0.0313 kg/ha) | herbicidal effect rating, SAGPY ([5]; 0.2500 kg/ha) | Preemergence herbicidal rating GLXMAW [9] | Preemergence herbicidal rating IPOHE [14] | herbicidal rating CASOB (CASOB (Sicklepod) [26]; rate 0.0625 kg/ha)
0.0: herbicidal rating CHEAL ([2]; rate 0.0156 kg/ha) | herbicidal effect rating, SAGPY ([5]; 0.0313 kg/ha) | herbicidal effect rating, SAGPY ([5]; 0.0625 kg/ha) | herbicidal effect rating, SAGPY ([5]; 0.1250 kg/ha) | Preemergence herbicidal rating GALAP (GALAP (Galium) [10]) | herbicidal effect rating, CYPSE (CYPSE (Flatsedge); 0.0313 kg/ha) | herbicidal effect rating, CYPSE (CYPSE (Flatsedge); 0.1250 kg/ha) | Preemergence herbicidal rating ECHCG (ECHCG (Barnyardgrass) [12]) | Preemergence herbicidal rating SETVI (SETVI (Foxtail, Green) [15]) | herbicidal rating GALAP (GALAP (Galium) [16]; rate 0.0156 kg/ha) | herbicidal rating GALAP (GALAP (Galium) [16]; rate 0.0313 kg/ha) | herbicidal rating GALAP (GALAP (Galium) [16]; rate 0.0625 kg/ha) | herbicidal effect rating, ECHORC ([17]; 0.0313 kg/ha) | herbicidal effect rating, ECHORC ([17]; 0.0625 kg/ha) | herbicidal effect rating, ECHORC ([17]; 0.1250 kg/ha) | Preemergence herbicidal rating ORYSAT (ORYSAT (Rice, Tebonnet) [18]) | Preemergence herbicidal rating ZEAMX (ZEAMX (Corn, Field) [20]) | Preemergence herbicidal rating CASOB (CASOB (Sicklepod) [21]) | Preemergence herbicidal rating TRZAWR [24] | herbicidal rating SETVI (SETVI (Foxtail, Green) [25]; rate 0.0156 kg/ha) | herbicidal effect rating, CYPIR (CYPIR (Rice Flatsedge); 0.0313 kg/ha) | herbicidal effect rating, CYPIR (CYPIR (Rice Flatsedge); 0.0625 kg/ha) | herbicidal effect rating, CYPIR (CYPIR (Rice Flatsedge); 0.1250 kg/ha) | herbicidal rating CASOB (CASOB (Sicklepod) [26]; rate 0.0156 kg/ha)
